Assay results: US10981932B2, “Macrocyclic indole derivatives” (Bayer Aktiengesellschaft, priority 2016, dated 2021)
Counter-ions that a name gives are not always drawn. Like-named read-outs stand apart in the source and are kept apart here.

Assays:
SUDHL5 = test: Anti-proliferative effect (CellTiter-Glo, 72 h), SUDHL5; assay type: cell-based; details: SUDHL5 cells, antiproliferation, 72 h incubation, median, read-out: Antiproli SUDHL5 [M] (median)
Method in brief: (§1)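 72 h compound treatment, 37 °C humidified; CellTiter-Glo added, 10 min incubation, luminescence read; day 0 plate read in parallel for baseline.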

SUDHL10 [1] = test: Induction of cytotoxicity (CellTiter-Glo, 5 h), SUDHL10
BCL-XL = target: T1, BCL-XL (Homo sapiens, UniProt Q07817); test: Protein-protein interaction assay BCL-XL/Bad BH3 peptide (BCL-XL assay), TR-FRET; assay type: binding; details: His-BCL-XL / Bad BH3-derived peptide
T1 construct: BCL-XL (amino acids 1-212, C-terminal fused to a hexahistidine (6×His) tag); purchased BPS Bioscience (San Diego, Calif., USA); host or cells: E. coli
Description: Protein-Protein Interaction Assay: BCL-XL/Bad BH3 Peptide (BCL-XL Assay)
The dose-dependent inhibition by the compounds described in this invention of the interaction between […] and the BH3 domain of Bad (both human) was determined using a steady state binding competition assay with time-resolved fluorescence energy transfer (TR-FRET) readout. For that purpose BCL-2 (amino acids 1-211, C-terminal fused to a hexahistidine (6×His) tag (SEQ ID NO: 3) and a synthetic Bad BH3-derived peptide of sequence Biotin-PEG2-PEG2-NLWAAQRYGRELRR-NIe-SDEFVDSFKK-amide (SEQ ID NO: 2) served as protein receptor and tracer ligand respectively. The recombinant BCL-2 protein (expressed in E. coli) was purchased from BPS Bioscience (San Diego, Calif., USA). The Bad BH3-derived peptide can be obtained from e.g. Biosyntan (Berlin, Germany).
In the assay 11 different concentrations of each compound (0.1 nM, 0.33 nM, 1.1 nM, 3.8 nM, 13 nM, 44 nM, 0.15 μM, 0.51 μM, 1.7 μM, 5.9 μM and 20 μM) were typically measured as duplicates in the same microtiter plate. For that, 100-fold concentrated DMSO solutions were prepared by serial dilutions (1:3.4) of a 2 mM stock solution in a clear, 384-well microtiter plate (Greiner Bio-One, Frickenhausen, Germany). From there, 50 nl were transferred in a dark test plate (Greiner Bio-One. Frickenhausen, Germany). The assay was initiated by addition of 2 μl of a 2,5-fold concentrated Hs-BCL-XL solution (usually for a 1 nM end concentration in 5 μl reaction volume) in aqueous assay buffer [50 mM Tris/HCl pH 7, 100 mM sodium chloride (NaCl), 50 mM potassium fluoride (KF), 0.005% Tween-20, 2 mM DTT, 0.1% bovine gamma globulin (BGG)] to the compounds in the assay plate. This was followed by a 10-minute incubation step at 22° C. for pre-equilibration of the putative complex between His-BCL-XL and the compounds.
The mixture was incubated in the dark for one hour at 22° C. and then overnight at 4° C. The formation of BCL-XL/Bad complexes was determined by measuring the resonance energy transfer of the anti-His- Eu-cryptate antibody to the streptavidin-XL665 present in the reaction. For that purpose, the fluorescence emission at 620 nm and 665 nm after excitation at 330-350 nm was measured in a TR-FRET measuring instrument, for instance a Rubystar or a Pherastar (both from BMG Lab Technologies, Offenburg, Germany) or a Viewlux (Perkin-Elmer). The ratio of the emission at 665 nm and at 622 nm was used as indicator of the amount of BCL-XL/Bad complexes present.
The resulting data (ratio) were normalized, taking 0% inhibition as the mean value of control measurements (usually 32 data points) where all reagents were included. In this case 50 nl DMSO were used instead of compounds. A 100% inhibition corresponded to the mean value of control measurements (usually 32 data points) where all reagents except BCL-XL were included. IC50 values were determined by regression analysis based on a 4 parameter equation (minimum, maximum, IC50, Hill; Y=Max+(Min−Max)/(1+(X/IC50)^Hill) using the Screener Software (Genedata).

SUDHL10 [2] = test: Anti-proliferative effect (CellTiter-Glo, 72 h), SUDHL10; assay type: cell-based; details: SUDHL10 cells, antiproliferation, 72 h incubation, median, read-out: Antiproli SUDHL10 [M] (median)
Method in brief: as §1

[3] = Homo sapiens, SU-DHL10, 5 h, read-out: Cytotox SUDHL10 [M] (median), SUDHL10 cells, cytotoxicity induction, CellTiter-Glo, 5 h incubation, median
[4] = read-out: Cytotox SUDHL10 [M] (median), SUDHL10 cells, cytotoxicity induction, CellTiter-Glo, 5 h incubation, median

T1 sequence (Q07817 1-212): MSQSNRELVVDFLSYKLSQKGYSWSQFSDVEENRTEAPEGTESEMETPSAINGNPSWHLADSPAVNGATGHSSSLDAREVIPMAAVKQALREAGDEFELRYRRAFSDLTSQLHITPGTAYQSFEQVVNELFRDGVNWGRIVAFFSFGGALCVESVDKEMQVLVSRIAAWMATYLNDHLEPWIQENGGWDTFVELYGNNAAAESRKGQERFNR

Row | SMILES | IC50 (SUDHL5; Homo sapiens, SU-DHL-5, 72 h) | IC50 (BCL-XL) | IC50 (SUDHL10 [2]; Homo sapiens, SU-DHL10, 72 h) | IC50 (SUDHL5) | IC50 (SUDHL10 [2]) | IC50 (SUDHL10 [1]; [3]) | IC50 (SUDHL10 [1]; [4])
1 | CCn1nc2c(c1C1CC1)-c1cccc3c(CCCOc4cccc5ccccc45)c(C(=O)O)n(c13)CCCCOC2 (single isomer, unassigned; enantiomer 1) [Example 082, 3-cyclopropyl-2-ethyl-7-[3-(naphthalen-1-yloxy)propyl]-2,10,11,12,13,15-hexahydropyrazolo[4′,3′:9,10][1,6]oxazacycloundecino[8,7,6-hi]indole-8-carboxylic acid-N-ethylethanamine Salt (Enantiomer 1)] | 1.81e-05 M | > 20 µM | 7.79e-06 M | – | – | > 3.3e-05 M | –
2 | Cc1ccc2c(CCCOc3cccc4ccccc34)c(C(=O)O)n3c2c1-c1c(nn(C)c1C)CN(C)CCC3 (single isomer, unassigned; enantiomer 1) [Example 073, 7,10,11,12-tetramethyl-1-[3-(naphthalen-1-yloxy)propyl]-4,5,6,7,8,10-hexahydropyrazolo[3′,4′:7,8][1,5]diazecino[9,10,1-hi]indole-2-carboxylic Acid (Enantiomer 1)] | – | > 20 µM | 6.86e-06 M | 3.23e-06 M | – | – | 3.67e-06 M
3 | CCc1c2c(nn1C)CN(C)CCCn1c(C(=O)O)c(CCCOc3cccc4ccccc34)c3ccc(C)c-2c31 (racemic) [Example 144, (rac)-11-ethyl-7,10,12-trimethyl-1-[3-(1-naphthyloxy)propyl]-4,5,6,7,8,10-hexahydropyrazolo[3′,4′:7,8][1,5]diazecino[9,10,1-hi]indole-2-carboxylic Acid] | 1.33e-06 M | > 20 µM | 5.89e-06 M | – | – | 5.02e-06 M | –
4 | Cc1ccc2c(CCCOc3cccc4c3CCCC4)c(C(=O)O)n3c2c1-c1c(C)nn(C)c1COCCCC3 (racemic) [Example 039, (rac)-1,3,4-trimethyl-7-[3-(5,6,7,8-tetrahydronaphthalen-1-yloxy)propyl]-110,11,12,13,15-hexahydropyrazolo[4′3′:9,10][1,6]oxazacycloundecino[8,7,6-hi]indole-8-carboxylic Acid] | 1.11e-05 M | > 20 µM | 1.3e-05 M | – | – | 2.97e-05 M | –
5 | CCc1c2c(nn1C)COCCCCn1c(C(=O)O)c(CCCOc3cccc4ccccc34)c3ccc(C)c-2c31 (racemic) [Example 153, (rac)-3-Ethyl-2,4-dimethyl-7-[3-(1-naphthyloxy)propyl]-2,10,11,12,13,15-hexahydropyrazolo[4′,3′:9,10][1,6]oxazacycloundecino[8,7,6-hi]indole-8-carboxylic Acid] | 7.96e-07 M | > 20 µM | 4.09e-06 M | – | – | 5.1e-06 M | –
6 | Cc1c2c(nn1CCN1CCOCC1)CN(C)CCCn1c(C(=O)O)c(CCCOc3cccc4ccccc34)c3cccc-2c31 (single isomer, unassigned; enantiomer 2) [Example 061, 7,11-dimethyl-10-[2-(morpholin-4-yl)ethyl]-1-[3-(naphthalen-1-yloxy)propyl]-4,5,6,7,8,10-hexahydropyrazolo[3′,4′:7,8][1,5]diazecino[9,10,1-hi]indole-2-carboxylic Acid (Enantiomer 2)] | – | > 20 µM | – | 8.04e-06 M | 8.37e-06 M | – | 1.75e-05 M
7 | Cc1nn(C)c2c1-c1cccc3c(CCCOc4cccc5cc(F)ccc45)c(C(=O)O)n(c13)CCCCOC2 (single isomer, unassigned; enantiomer 1) [Example 019, 7-{3-[(6-fluoronaphthalen-1-yl)oxy]propyl}-1,3-dimethyl-1,10,11,12,13,15-hexahydropyrazolo[4′,3′:9,10][1,6]oxazacycloundecino[8,7,6-hi]indole-8-carboxylic Acid-N-ethylethanamine Salt (Enantiomer 1)] | – | > 20 µM | 4.45e-06 M | 3.65e-06 M | – | – | 3.76e-06 M
8 | Cc1nn(C)c2c1-c1cccc3c(CCCOc4ccc(F)c5ccccc45)c(C(=O)O)n(c13)CCCCOC2 (single isomer, unassigned; enantiomer 2) [Example 023, 7-{3-[(4-fluoronaphthalen-1-yl)oxy]propyl}-1,3-dimethyl-1,10,11,12,13,15-hexahydropyrazolo[4′3′:9,10][1,6]oxazacycloundecino[8,7,6-hi]indole-8-carboxylic acid-N-ethylethanamine Salt (Enantiomer 2)] | – | > 20 µM | – | 4.32e-06 M | 9.57e-06 M | – | 5.85e-06 M
9 | CCc1c2c(nn1C)CN(C)CCCn1c(C(=O)O)c(CCCOc3cccc4ccccc34)c3ccc(C)c-2c31 (single isomer, unassigned; enantiomer 1) [Example 145, 11-Ethyl-7,10,12-trimethyl-1-[3-(1-naphthyloxy)propyl]-4,5,6,7,8,10-hexahydropyrazolo[3′,4′:7,8][1,5]diazecino[9,10,1-hi]indole-2-carboxylic acid-N-ethylethanamine Salt (Enantiomer 1)] | – | > 20 µM | – | 1.85e-06 M | 4.25e-06 M | – | 2.4e-06 M

More lines, main results first:

Row | IC50 (SUDHL5; Homo sapiens, SU-DHL-5, 72 h) | IC50 (BCL-XL) | IC50 (SUDHL10 [2]; Homo sapiens, SU-DHL10, 72 h) | IC50 (SUDHL5) | IC50 (SUDHL10 [2]) | SMILES | IC50 (SUDHL10 [1]; [3]) | IC50 (SUDHL10 [1]; [4])
10 | 9.62e-06 M | > 20 µM | 1.17e-05 M | – | – | CC(C)OCc1nn(C)c2c1-c1cccc3c(CCCOc4cccc5ccccc45)c(C(=O)O)n(c13)CCCCN(C)C2 (single isomer, unassigned) [Example 1-74, 1,14-dimethyl-7-[3-(naphthalen-1-yloxy)propyl]-3-[(propan-2-yloxy)methyl]-10,11,12,13,14,15-hexahydro-1H-pyrazolo[3′,4′:8,9][1,6]diazacycloundecino[10,11,1-hi]indole-8-carboxylic Acid] | – | 1.42e-05 M
11 | – | > 20 µM | – | 1.26e-06 M | 1.35e-06 M | Cn1nc(COc2ccc(N3CCN(S(C)(=O)=O)CC3)cc2)c2c1COCCCCn1c(C(=O)O)c(CCCOc3cccc4ccccc34)c3cccc-2c31 (single isomer, unassigned; enantiomer 2) [Example 1-10, 1-methyl-3-({4-[4-(methylsulfonyl)piperazin-1-yl]phenoxy}methyl)-7-[3-(naphthalen-1-yloxy)propyl]-1,10,11,12,13,15-hexahydropyrazolo[4′,3′:9,10][1,6]oxazacycloundecino[8,7,6-hi]indole-8-carboxylic acid (enantiomer 2)] | – | 4.74e-07 M
12 | – | > 20 µM | – | 3.12e-06 M | 4.55e-06 M | Cc1nn(C)c2c1-c1cccc3c(CCCOc4cccc5ccccc45)c(C(=O)O)n(c13)CCCN(C)C2 (single isomer, unassigned; enantiomer 1) [Example 1-31, 7,9,11-trimethyl-1-[3-(naphthalen-1-yloxy)propyl]-4,5,6,7,8,9-hexahydropyrazolo[3′,4′:7,8][1,5]diazecino[9,10,1-hi]indole-2-carboxylic Acid-N-ethylethanamine Salt (Enantiomer 1)] | – | 1.61e-05 M
